{
  "source": "the Kinase Knowledgebase extract (Sharma et al. 2016)",
  "key": {"CDK2 (human)": {"biological_target": "CDK2 (human) (UniProt P24941)", "settings": "for inhibition: concentration not given here"}, "MAPK14 (human)": {"biological_target": "MAPK14 (human) (UniProt Q16539)", "sequence (Q16539 whole entry, looked up)": "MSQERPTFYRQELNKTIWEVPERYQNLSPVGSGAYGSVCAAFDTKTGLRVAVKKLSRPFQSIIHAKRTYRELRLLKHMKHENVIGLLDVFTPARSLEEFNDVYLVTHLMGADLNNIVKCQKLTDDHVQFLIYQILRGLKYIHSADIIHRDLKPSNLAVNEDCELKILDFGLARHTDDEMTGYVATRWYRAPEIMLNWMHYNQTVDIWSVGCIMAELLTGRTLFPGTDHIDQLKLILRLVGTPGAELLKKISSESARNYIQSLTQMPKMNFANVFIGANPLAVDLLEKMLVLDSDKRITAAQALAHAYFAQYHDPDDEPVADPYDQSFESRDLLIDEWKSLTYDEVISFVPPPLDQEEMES", "settings": "concentration not given here"}, "PIK3CB (Human)": {"biological_target": "PIK3CB (Human) (UniProt P42338)"}, "PIK3CA (human)": {"biological_target": "PIK3CA (human) (UniProt P42336)", "sequence (P42336 whole entry, looked up)": "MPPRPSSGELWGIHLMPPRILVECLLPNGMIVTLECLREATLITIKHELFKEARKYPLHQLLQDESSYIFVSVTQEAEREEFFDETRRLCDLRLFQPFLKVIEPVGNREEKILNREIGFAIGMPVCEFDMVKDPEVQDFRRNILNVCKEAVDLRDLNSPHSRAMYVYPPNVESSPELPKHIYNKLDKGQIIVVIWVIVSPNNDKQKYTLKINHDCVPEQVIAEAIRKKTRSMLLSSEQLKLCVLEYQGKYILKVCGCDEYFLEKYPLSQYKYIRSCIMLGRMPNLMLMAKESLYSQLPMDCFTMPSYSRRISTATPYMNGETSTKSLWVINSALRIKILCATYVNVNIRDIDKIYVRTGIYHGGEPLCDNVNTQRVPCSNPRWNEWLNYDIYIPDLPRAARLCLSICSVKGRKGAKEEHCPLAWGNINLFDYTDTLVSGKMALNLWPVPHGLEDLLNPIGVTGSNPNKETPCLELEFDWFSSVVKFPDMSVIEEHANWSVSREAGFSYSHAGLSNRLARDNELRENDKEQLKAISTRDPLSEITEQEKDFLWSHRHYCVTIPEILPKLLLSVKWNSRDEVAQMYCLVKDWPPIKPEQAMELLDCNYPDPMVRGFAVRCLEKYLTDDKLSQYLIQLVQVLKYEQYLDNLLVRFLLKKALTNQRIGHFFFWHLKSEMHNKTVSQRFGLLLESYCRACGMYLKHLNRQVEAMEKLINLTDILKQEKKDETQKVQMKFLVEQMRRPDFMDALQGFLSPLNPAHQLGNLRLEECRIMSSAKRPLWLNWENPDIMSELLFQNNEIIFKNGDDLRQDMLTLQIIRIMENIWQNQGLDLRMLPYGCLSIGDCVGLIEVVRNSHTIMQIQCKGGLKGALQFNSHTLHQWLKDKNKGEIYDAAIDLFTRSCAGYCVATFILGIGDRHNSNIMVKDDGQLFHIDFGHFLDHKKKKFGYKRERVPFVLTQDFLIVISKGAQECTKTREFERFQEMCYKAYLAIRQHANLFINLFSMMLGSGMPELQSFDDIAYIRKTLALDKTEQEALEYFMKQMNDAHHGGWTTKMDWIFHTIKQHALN"}, "PIK3CD (Human)": {"biological_target": "PIK3CD (Human) (UniProt O00329)", "sequence (O00329 whole entry, looked up)": "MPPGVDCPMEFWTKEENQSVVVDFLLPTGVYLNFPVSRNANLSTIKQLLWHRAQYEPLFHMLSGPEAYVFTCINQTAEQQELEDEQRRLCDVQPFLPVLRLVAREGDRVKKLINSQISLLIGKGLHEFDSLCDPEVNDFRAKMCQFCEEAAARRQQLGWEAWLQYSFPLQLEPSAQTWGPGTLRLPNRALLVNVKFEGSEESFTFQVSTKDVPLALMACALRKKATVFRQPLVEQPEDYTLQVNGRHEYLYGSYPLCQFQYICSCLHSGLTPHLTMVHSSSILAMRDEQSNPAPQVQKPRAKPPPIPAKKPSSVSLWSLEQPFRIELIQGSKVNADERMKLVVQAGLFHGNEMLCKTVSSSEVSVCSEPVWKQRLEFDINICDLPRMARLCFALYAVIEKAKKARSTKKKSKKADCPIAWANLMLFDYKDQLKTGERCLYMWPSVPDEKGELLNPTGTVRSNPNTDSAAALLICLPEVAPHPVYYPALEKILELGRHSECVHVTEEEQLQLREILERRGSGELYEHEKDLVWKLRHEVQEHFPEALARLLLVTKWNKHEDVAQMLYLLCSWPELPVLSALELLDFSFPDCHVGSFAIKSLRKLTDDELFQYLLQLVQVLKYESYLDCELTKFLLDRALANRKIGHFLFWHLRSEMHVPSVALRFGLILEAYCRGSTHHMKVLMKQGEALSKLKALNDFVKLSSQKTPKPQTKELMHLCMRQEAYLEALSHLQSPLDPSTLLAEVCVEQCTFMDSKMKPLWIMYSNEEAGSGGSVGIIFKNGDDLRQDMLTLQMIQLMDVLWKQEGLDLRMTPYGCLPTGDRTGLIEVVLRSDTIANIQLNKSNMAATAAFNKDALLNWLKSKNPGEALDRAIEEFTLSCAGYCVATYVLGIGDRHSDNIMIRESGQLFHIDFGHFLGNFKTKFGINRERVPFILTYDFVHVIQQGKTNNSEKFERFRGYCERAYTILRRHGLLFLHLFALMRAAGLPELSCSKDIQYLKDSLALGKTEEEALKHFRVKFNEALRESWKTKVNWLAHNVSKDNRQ"}, "PIK3CG (human)": {"biological_target": "PIK3CG (human) (UniProt P48736)", "sequence (P48736 whole entry, looked up)": "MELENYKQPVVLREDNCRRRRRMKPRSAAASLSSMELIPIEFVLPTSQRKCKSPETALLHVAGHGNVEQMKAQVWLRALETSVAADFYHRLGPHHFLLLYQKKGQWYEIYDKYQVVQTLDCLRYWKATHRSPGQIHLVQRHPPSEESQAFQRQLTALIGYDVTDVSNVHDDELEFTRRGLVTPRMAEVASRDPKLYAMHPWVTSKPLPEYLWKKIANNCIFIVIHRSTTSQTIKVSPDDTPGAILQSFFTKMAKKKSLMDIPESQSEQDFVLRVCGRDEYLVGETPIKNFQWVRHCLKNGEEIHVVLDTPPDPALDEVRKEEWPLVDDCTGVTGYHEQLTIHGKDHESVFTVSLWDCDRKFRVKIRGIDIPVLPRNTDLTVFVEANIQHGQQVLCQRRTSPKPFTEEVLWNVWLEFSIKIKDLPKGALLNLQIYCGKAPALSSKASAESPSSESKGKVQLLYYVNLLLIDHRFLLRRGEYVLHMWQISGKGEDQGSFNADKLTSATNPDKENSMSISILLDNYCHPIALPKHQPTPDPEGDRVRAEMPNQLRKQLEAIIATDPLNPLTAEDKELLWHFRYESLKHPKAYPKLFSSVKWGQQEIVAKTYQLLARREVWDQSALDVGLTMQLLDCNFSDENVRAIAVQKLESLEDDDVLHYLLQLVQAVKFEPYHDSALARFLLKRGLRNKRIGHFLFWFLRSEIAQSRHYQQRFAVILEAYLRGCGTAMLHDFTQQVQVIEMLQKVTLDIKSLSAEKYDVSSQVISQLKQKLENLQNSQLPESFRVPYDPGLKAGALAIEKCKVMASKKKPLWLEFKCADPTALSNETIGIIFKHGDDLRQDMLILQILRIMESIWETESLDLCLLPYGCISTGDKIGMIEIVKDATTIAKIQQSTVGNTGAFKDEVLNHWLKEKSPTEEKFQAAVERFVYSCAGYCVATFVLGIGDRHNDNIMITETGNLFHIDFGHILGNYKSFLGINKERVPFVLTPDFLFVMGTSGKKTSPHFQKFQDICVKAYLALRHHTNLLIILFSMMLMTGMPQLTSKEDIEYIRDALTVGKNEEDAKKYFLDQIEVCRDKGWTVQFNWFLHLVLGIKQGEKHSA"}, "EGFR (human)": {"biological_target": "EGFR (human) (UniProt P00533)", "sequence (P00533 whole entry, looked up)": "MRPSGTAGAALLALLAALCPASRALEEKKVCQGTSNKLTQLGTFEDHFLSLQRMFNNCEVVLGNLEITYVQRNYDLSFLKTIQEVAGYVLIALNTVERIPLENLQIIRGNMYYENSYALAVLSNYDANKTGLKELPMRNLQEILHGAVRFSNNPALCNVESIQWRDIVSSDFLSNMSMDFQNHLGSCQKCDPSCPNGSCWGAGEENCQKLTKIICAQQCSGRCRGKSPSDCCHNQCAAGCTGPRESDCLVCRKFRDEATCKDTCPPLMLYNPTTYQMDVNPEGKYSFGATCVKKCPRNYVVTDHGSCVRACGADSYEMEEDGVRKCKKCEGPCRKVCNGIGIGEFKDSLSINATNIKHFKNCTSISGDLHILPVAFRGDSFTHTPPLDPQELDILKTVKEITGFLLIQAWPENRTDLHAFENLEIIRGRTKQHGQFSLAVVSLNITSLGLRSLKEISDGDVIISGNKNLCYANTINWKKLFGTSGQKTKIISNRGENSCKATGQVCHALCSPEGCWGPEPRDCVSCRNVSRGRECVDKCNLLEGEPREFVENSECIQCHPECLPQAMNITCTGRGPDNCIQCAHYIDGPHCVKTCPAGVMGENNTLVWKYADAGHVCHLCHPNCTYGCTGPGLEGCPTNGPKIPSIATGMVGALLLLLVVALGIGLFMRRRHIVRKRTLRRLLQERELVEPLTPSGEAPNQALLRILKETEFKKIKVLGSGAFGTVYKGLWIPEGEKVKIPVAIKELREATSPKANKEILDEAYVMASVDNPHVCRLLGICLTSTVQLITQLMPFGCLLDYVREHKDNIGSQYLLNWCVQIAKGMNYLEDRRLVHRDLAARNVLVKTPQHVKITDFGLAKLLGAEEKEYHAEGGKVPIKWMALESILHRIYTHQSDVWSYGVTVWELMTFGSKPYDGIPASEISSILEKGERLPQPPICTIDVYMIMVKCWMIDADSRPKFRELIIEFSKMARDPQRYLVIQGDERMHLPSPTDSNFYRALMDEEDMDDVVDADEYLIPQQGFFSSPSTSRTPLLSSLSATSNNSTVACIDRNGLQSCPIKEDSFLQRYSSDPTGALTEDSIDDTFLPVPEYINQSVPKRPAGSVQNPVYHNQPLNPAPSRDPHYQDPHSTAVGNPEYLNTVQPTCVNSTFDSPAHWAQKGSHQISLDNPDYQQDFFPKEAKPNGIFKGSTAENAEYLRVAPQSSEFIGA"}},
  "data": [
    {"smiles": "O=C(c1ccccc1)c1ccc(N2CCOCC2)cc1O", "values": [
      {"measurement": "inhibition", "setting": "CDK2 (human)", "value": 0.3, "unit": "%"},
      {"measurement": "inhibition", "setting": "MAPK14 (human)", "value": -2.8, "unit": "%"}
    ]},
    {"smiles": "Cc1cc(C(C)Nc2ccccc2)c2oc(-c3ccncc3)cc(=O)c2c1", "note": "(stereo unspecified)", "values": [
      {"measurement": "IC50", "setting": "PIK3CB (Human)", "value": 120, "unit": "nM"},
      {"measurement": "inhibition", "setting": "CDK2 (human)", "value": -3.1, "unit": "%"},
      {"measurement": "inhibition", "setting": "MAPK14 (human)", "value": -0.9, "unit": "%"}
    ]},
    {"smiles": "O=c1cc(-c2cccc3c2Sc2ccccc2S3)oc(N2CCOCC2)c1", "values": [
      {"measurement": "IC50", "setting": "PIK3CA (human)", "value": 3300, "unit": "nM"},
      {"measurement": "IC50", "setting": "PIK3CB (Human)", "value": 1200, "unit": "nM"},
      {"measurement": "IC50", "setting": "PIK3CD (Human)", "value": 720, "unit": "nM"},
      {"measurement": "IC50", "setting": "PIK3CG (human)", "value": 9900, "unit": "nM"},
      {"measurement": "inhibition", "setting": "CDK2 (human)", "value": 2.6, "unit": "%"},
      {"measurement": "inhibition", "setting": "MAPK14 (human)", "value": -1.4, "unit": "%"}
    ]},
    {"smiles": "Cc1ccccc1Oc1cccc2c(=O)cc(N3CCOCC3)[nH]c12", "values": [
      {"measurement": "IC50", "setting": "PIK3CG (human)", "value": 100000, "unit": "nM"},
      {"measurement": "inhibition", "setting": "CDK2 (human)", "value": -5.3, "unit": "%"},
      {"measurement": "inhibition", "setting": "MAPK14 (human)", "value": -1.2, "unit": "%"}
    ]},
    {"smiles": "CC(=O)Nc1nc(C)c(-c2ccc(Cl)c(S(=O)(=O)NCCO)c2)s1", "values": [
      {"measurement": "IC50", "setting": "PIK3CB (Human)", "value": 590, "unit": "nM"},
      {"measurement": "inhibition", "setting": "CDK2 (human)", "value": 1.9, "unit": "%"},
      {"measurement": "inhibition", "setting": "MAPK14 (human)", "value": -2.9, "unit": "%"}
    ]},
    {"smiles": "CC(C)n1cc(-c2cc3cc(C=O)ccc3s2)c2c(N)ncnc21", "values": [
      {"measurement": "IC50", "setting": "PIK3CA (human)", "value": "1000 to 50000", "unit": "nM"},
      {"measurement": "IC50", "setting": "PIK3CB (Human)", "value": "1000 to 50000", "unit": "nM"},
      {"measurement": "IC50", "setting": "PIK3CD (Human)", "value": "1000 to 50000", "unit": "nM"},
      {"measurement": "IC50", "setting": "PIK3CG (human)", "value": "1000 to 50000", "unit": "nM"},
      {"measurement": "IC50", "setting": "EGFR (human)", "value": "> 50000", "unit": "nM"}
    ]},
    {"smiles": "Cc1ccccc1-n1c(Cn2ncc3c(N)ncnc32)nc2cccc(C)c2c1=O", "values": [
      {"measurement": "IC50", "setting": "PIK3CA (human)", "value": 100000, "unit": "nM"},
      {"measurement": "IC50", "setting": "PIK3CB (Human)", "value": 25000, "unit": "nM"},
      {"measurement": "IC50", "setting": "PIK3CD (Human)", "value": 240, "unit": "nM"},
      {"measurement": "IC50", "setting": "PIK3CG (human)", "value": 10000, "unit": "nM"}
    ]},
    {"smiles": "CC(C)n1nc(-c2ccc3onc(N)c3c2)c2c(N)ncnc21", "values": [
      {"measurement": "IC50", "setting": "PIK3CA (human)", "value": "< 1000", "unit": "nM"},
      {"measurement": "IC50", "setting": "PIK3CB (Human)", "value": "1000 to 50000", "unit": "nM"},
      {"measurement": "IC50", "setting": "PIK3CD (Human)", "value": "< 1000", "unit": "nM"},
      {"measurement": "IC50", "setting": "PIK3CG (human)", "value": "< 1000", "unit": "nM"},
      {"measurement": "IC50", "setting": "EGFR (human)", "value": "1000 to 50000", "unit": "nM"}
    ]},
    {"smiles": "Cc1ccccc1-n1c(Cn2cnc3c(N)ncnc32)nc2cccc(C)c2c1=O", "values": [
      {"measurement": "inhibition", "setting": "CDK2 (human)", "value": -2.4, "unit": "%"},
      {"measurement": "inhibition", "setting": "MAPK14 (human)", "value": -4.1, "unit": "%"}
    ]},
    {"smiles": "CC(C)n1nc(-c2cccc(C(=O)NC3C=NCS3)c2)c2c(N)ncnc21", "note": "(stereo unspecified)", "values": [
      {"measurement": "IC50", "setting": "PIK3CA (human)", "value": "1000 to 50000", "unit": "nM"},
      {"measurement": "IC50", "setting": "PIK3CB (Human)", "value": "1000 to 50000", "unit": "nM"},
      {"measurement": "IC50", "setting": "PIK3CD (Human)", "value": "< 1000", "unit": "nM"},
      {"measurement": "IC50", "setting": "PIK3CG (human)", "value": "< 1000", "unit": "nM"},
      {"measurement": "IC50", "setting": "EGFR (human)", "value": "< 1000", "unit": "nM"}
    ]},
    {"smiles": "COc1ccc2c(c1OC)N=C(NC(=O)c1cccnc1)N1CCN=C21", "values": [
      {"measurement": "IC50", "setting": "EGFR (human)", "value": "> 50000", "unit": "nM"},
      {"measurement": "inhibition", "setting": "CDK2 (human)", "value": -0.9, "unit": "%"},
      {"measurement": "inhibition", "setting": "MAPK14 (human)", "value": 1.5, "unit": "%"}
    ]},
    {"smiles": "CC(C)n1nc(-c2ccc(I)cc2)c2c(N)ncnc21", "values": [
      {"measurement": "IC50", "setting": "PIK3CA (human)", "value": "1000 to 50000", "unit": "nM"},
      {"measurement": "IC50", "setting": "PIK3CB (Human)", "value": "1000 to 50000", "unit": "nM"},
      {"measurement": "IC50", "setting": "PIK3CD (Human)", "value": "< 1000", "unit": "nM"},
      {"measurement": "IC50", "setting": "PIK3CG (human)", "value": "1000 to 50000", "unit": "nM"},
      {"measurement": "IC50", "setting": "EGFR (human)", "value": "1000 to 50000", "unit": "nM"}
    ]},
    {"smiles": "Oc1cccc(-c2nc(N3CCOCC3)c3oc4ncccc4c3n2)c1", "values": [
      {"measurement": "inhibition", "setting": "CDK2 (human)", "value": 1.5, "unit": "%"},
      {"measurement": "inhibition", "setting": "MAPK14 (human)", "value": 0.2, "unit": "%"}
    ]},
    {"smiles": "O=C1NC(=S)S/C1=C/c1ccc2c(c1)N(Cc1ccc(F)c(Cl)c1)C(=O)CO2", "values": [
      {"measurement": "IC50", "setting": "PIK3CB (Human)", "value": 1100, "unit": "nM"},
      {"measurement": "inhibition", "setting": "CDK2 (human)", "value": -4.9, "unit": "%"},
      {"measurement": "inhibition", "setting": "MAPK14 (human)", "value": -2.6, "unit": "%"}
    ]},
    {"smiles": "COc1ccccc1-n1c(CSc2ncnc3[nH]cnc23)nc2cccc(Cl)c2c1=O", "values": [
      {"measurement": "inhibition", "setting": "CDK2 (human)", "value": -5.6, "unit": "%"},
      {"measurement": "inhibition", "setting": "MAPK14 (human)", "value": -8.5, "unit": "%"}
    ]},
    {"smiles": "Cc1ccc([N+](=O)[O-])cc1S(=O)(=O)N(C)N=Cc1cnc2ccc(Br)cn12", "values": [
      {"measurement": "IC50", "setting": "PIK3CG (human)", "value": 76, "unit": "nM"},
      {"measurement": "IC50", "setting": "CDK2 (human)", "value": 1200, "unit": "nM"},
      {"measurement": "inhibition", "setting": "MAPK14 (human)", "value": -0.3, "unit": "%"}
    ]}
  ]
}
